According to US5166163A, “3-(1H-indazol-3-yl)-4-pyridinamines” (Hoechst-Roussel Pharmaceuticals Incorporated, priority 1991, dated 1992):
Structures can show the parent of a compound that is named as a salt.

Tests used:
[1] = test system: phenyl-para-quinone writhing; assay: phenyl-para-quinone writhing assay in mice (analgesia); format: in vivo; settings: s.c.
Description: The compounds of the present invention are useful as analgesic agents. […] Exptl. Biol. Med., 95,729 (1957)].

[2] = test system: ear edema induced by topical application of TPA (phorbol 12-myristate acetate); assay: TPA-Induced Ear Edema (TPAEE); format: in vivo, Female Swiss Webster mice; settings: mice
Experimental: The purpose of this assay was to determine the ability of a topically-applied compound to prevent ear edema induced by topical application of TPA (phorbol 12-myristate acetate). Female Swiss Webster mice topically received TPA (10 μg/ear) on the right ear and vehicle on the left ear. The test compound (10 μg/ear) was applied to both ears. After five hours, the animals were sacrificed and an ear punch (4 mm) was taken from each ear. The difference in right and left ear punch weights for each animal was determined to assess activity. […] See Young, J. M. et al., J. Invest. Dermatol., 80 (1983), pp. 48-52.

NN=C(c1cnccc1N)c1ccccc1F [(4-Amino-3-pyridinyl)-2-fluorophenylmethanone hydrazone dihydrochloride]
% Inhibition of Writhing ([1]; 20 mg/kg of body wt.): 74%

CC(C)(C)C(=O)Nc1ccncc1-c1n[nH]c2ccccc12 [N-[3-(1H-Indazol-3-yl)-4-pyridinyl]-2,2-dimethylpropanamide]
TPAEE (difference in right and left ear punch weights) ([2]; 10 μg/ear, both ears, five hours, TPA 10 μg/ear on right ear): -31%

CCC(=O)O[C@](Cc1ccccc1)(c1ccccc1)[C@H](C)CN(C)C [Propoxyphene, reference compound]
% Inhibition of Writhing ([1]; 3.9 mg/kg of body wt., standard): 50%

CC(C)(C)C(=O)Nc1ccncc1C(=NN)c1ccccc1F [[4-(2,2-Dimethylpropionamido)-3-pyridinyl]-2-fluorophenylmethanonehydrazonemaleate]
% Inhibition of Writhing ([1]; 20 mg/kg of body wt.): 60%

C[C@]12CCC(=O)C=C1CC[C@@H]1[C@@H]2[C@@H](O)C[C@@]2(C)[C@H]1CC[C@]2(O)C(=O)CO [hydrocortisone, reference compound]
ED50 ([2]; standard, TPA-induced ear edema): 47 μg/ear
